pIC50: −log10 of the molar value.
Tests used:
[1] = target: T1, BRD4 Bromodomain 2 (BRD4 BD2) (Homo sapiens, UniProt O60885); experiment: AlphaScreen binding assay, BRD4 BD2; details: His-tagged BRD4 BD2 100 nM, biotinylated H4 (1-21) K5/8/12/16 tetra-acetylated peptide 100 nM, compounds listed under IC50 range headings
T1 construct: 333-460 were cloned, expressed, and purified to homogeneity
Experimental: The binding of Example compounds to BRD4 Bromodomain 1 and BRD4 Bromodomain 2 was assessed using 384-well AlphaScreen assay technology. His-epitope tagged BRD4 BD144-168 and BRD4 BD2333-460 were cloned, expressed, and purified to homogeneity. BRD4 BD1 and BRD4 BD2 binding and inhibition was assessed by monitoring the engagement of biotinylated Histone H4 (1-21) K5/8/12/16 tetra-acetylated peptide with the targets using the AlphaScreen technology (PerkinElmer). Specifically, in a 384-well black or white flat bottom plate, BRD4 BD1 (50 nM final) or BRD4 BD2 (100 nM final) was combined with peptide (50 nM final for BD1 or 100 nM final for BD2) in 50 mM HEPES (pH 7.3), 100 mM NaCl, 0.1% (w/v) BSA, and 0.01% (w/v) Triton X-100 either in the presence of DMSO (final 1.25% DMSO) or compound dilution series in DMSO. Alpha streptavidin donor beads and Nickel-chelate acceptor beads were added to a final concentration of 10 μg/ml each. After a minimum of 1 hour equilibration, plates were read on a BMG PHERAstar FS multi-label reader (BMG LabTech). The half maximal inhibitory concentration (IC50) values were calculated using IDBS Activity Base software with a four parameter logistic curve fit by the equation y=A+((B−A)/(1+((C/x)^D))), wherein A denotes the bottom plateau of the curve, B denotes the top plateau of the curve, C denotes the x value at the middle of the curve, D denotes the slope factor, x denotes the original known x values, and y denotes the original known y values. Data was fitted using the Levenburg Marquardt algorithm.

[2] = target: T2, BRD4 Bromodomain 1 (BRD4 BD1) (Homo sapiens, UniProt O60885); experiment: AlphaScreen binding assay, BRD4 BD1; details: His-tagged BRD4 BD1 50 nM, biotinylated H4 (1-21) K5/8/12/16 tetra-acetylated peptide 50 nM, compounds listed under IC50 range headings
T2 construct: 44-168 and BRD4 BD2
Method in brief: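 An AlphaScreen competition format was used with His-BRD4 BD1 or BD2 and biotin-H4 K5/8/12/16-acetyl peptide, each at matched final levels of 50 nM (BD1) or 100 nM (BD2). Incubation in HEPES/NaCl buffer with 0.1% BSA and 0.01% Triton X-100 ran ≥1 h before IC50 determination.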

Row | Compound | pIC50 [1] | pIC50 [2]
1 | COC(=O)N1c2ccc(-c3cnn(C4CC4)c3)c(OCC(C)(C)F)c2CC[C@@H]1C [I-16, (S)-methyl 6-(1-cyclopropyl-1H-pyrazol-4-yl)-5-(2-fluoro-2-methylpropoxy)-2-methyl-3,4-dihydroquinoline-1(2H)-carboxylate] | 6.30 to 7.30 | 5.00 to 6.00
2 | COC(=O)N1c2ccc(-c3cnn(C4CC4)c3)c(OC(C)(C)C(N)=O)c2CC[C@@H]1C [I-18, (S)-methyl 5-(1-amino-2-methyl-1-oxopropan-2-yloxy)-6-(1-cyclopropyl-1H-pyrazol-4-yl)-2-methyl-3,4-dihydroquinoline-1(2H)-carboxylate] | 6.30 to 7.30 | 5.00 to 6.00
3 | CCNC(=O)COc1c(-c2cnn(C3CC3)c2)ccc2c1CC[C@H](C)N2C(=O)OC [I-21, (S)-methyl 6-(1-cyclopropyl-1H-pyrazol-4-yl)-5-(2-(ethylamino)-2-oxoethoxy)-2-methyl-3,4-dihydroquinoline-1(2H)-carboxylate] | 6.30 to 7.30 | ≤ 5.00
4 | COC(=O)N1c2ccc(-c3cnn(C4CC4)c3)c(OCCN3CCCC3=O)c2CC[C@@H]1C [I-25, (S)-methyl 6-(1-cyclopropyl-1H-pyrazol-4-yl)-2-methyl-5-(2-(2-oxopyrrolidin-1-yl)ethoxy)-3,4-dihydroquinoline-1(2H)-carboxylate] | 6.30 to 7.30 | 5.00 to 6.00
5 | COC(=O)N1c2ccc(-c3cnn(C4CC4)c3)c(OCC(=O)N3CCOCC3)c2CC[C@@H]1C [I-26, (S)-methyl 6-(1-cyclopropyl-1H-pyrazol-4-yl)-2-methyl-5-(2-morpholino-2-oxoethoxy)-3,4-dihydroquinoline-1(2H)-carboxylate] | 6.30 to 7.30 | 5.00 to 6.00
6 | COC(=O)N1c2ccc(-c3cnn(C4CC4)c3)c(OCCN3CCCS3(=O)=O)c2CC[C@@H]1C [I-27, methyl (2S)-6-(1-cyclopropyl-1H-pyrazol-4-yl)-5-[2-(1,1-dioxo-1λ^6,2-thiazolidin-2-yl)ethoxy]-2-methyl-1,2,3,4-tetrahydroquinoline-1-carboxylate] | > 7.30 | 5.00 to 6.00
7 | COC(=O)N1c2ccc(-c3cnn(C4CC4)c3)c(OCS(N)(=O)=O)c2CC[C@@H]1C [I-28, (S)-methyl 6-(1-cyclopropyl-1H-pyrazol-4-yl)-2-methyl-5-(sulfamoylmethoxy)-3,4-dihydroquinoline-1(2H)-carboxylate] | ≤ 6.30 | 5.00 to 6.00
8 | COC(=O)N1c2ccc(-c3cnn(C4CC4)c3)c(OCC3(CO)COC3)c2CC[C@@H]1C [I-32, (S)-methyl 6-(1-cyclopropyl-1H-pyrazol-4-yl)-5-((3-(hydroxymethyl)oxetan-3-yl)methoxy)-2-methyl-3,4-dihydroquinoline-1(2H)-carboxylate] | 6.30 to 7.30 | 5.00 to 6.00
9 | COC(=O)N1c2ccc(-c3cnn(C4CC4)c3)c(OC3CC(F)(F)C3)c2CC[C@@H]1C [I-33, (S)-methyl 6-(1-cyclopropyl-1H-pyrazol-4-yl)-5-(3,3-difluorocyclobutoxy)-2-methyl-3,4-dihydroquinoline-1(2H)-carboxylate] | ≤ 6.30 | 5.00 to 6.00
10 | CC(=O)N1c2ccc(-c3cnn(C4CC4)c3)c(OCC(C)(F)F)c2CC[C@@H]1C [I-37, (S)-1-(6-(1-cyclopropyl-1H-pyrazol-4-yl)-5-(2,2-difluoropropoxy)-2-methyl-3,4-dihydroquinolin-1(2H)-yl)ethanone] | 6.30 to 7.30 | 5.00 to 6.00
11 | CC(=O)N1c2ccc(-c3cnn(C4CC4)c3)c(OC(CF)CF)c2CC[C@@H]1C [I-38, (S)-1-(6-(1-cyclopropyl-1H-pyrazol-4-yl)-5-(1,3-difluoropropan-2-yloxy)-2-methyl-3,4-dihydroquinolin-1(2H)-yl)ethanone] | 6.30 to 7.30 | 5.00 to 6.00
12 | CC(=O)N1c2ccc(-c3cnn(C4CC4)c3)c(OC(C)(C)C(N)=O)c2CC[C@@H]1C [I-40, (S)-2-(1-acetyl-6-(1-cyclopropyl-1H-pyrazol-4-yl)-2-methyl-1,2,3,4-tetrahydroquinolin-5-yloxy)-2-methylpropanamide] | 6.30 to 7.30 | 5.00 to 6.00

— patent US10611750B2, “Tetrahydroquinoline compositions as bet bromodomain inhibitors” (FORMA Therapeutics, Inc., priority 2013, dated 2020)
